According to EP2108954A1, “A test system for detecting intracellular cyclic nucleotide level and methods and uses thereof” (Max-Planck-Gesellschaft zur Förderung der Wissenschaften …, priority 2008, dated 2009):
pEC50: −log10 of the molar value. “Also recorded” adds a separate entry of the source.

Key:
hHCN2 = assay: Gs coupling test: hHCN2 current in HEK293 cells coexpressing ORs and hHCN2; format: cell-based, human; conditions: 2 min 100 nM Etb; Or22a, Or83b and hHCN2 coexpressed
Experimental: (§1) HEK293 cells were cultured as described by Wicher and colleagues (Wicher et al., J. Biol. Chem. 281, 3227-36 (2006)). In brief, HEK293 cells were cultured at a density of ∼2*10^4 per 35-mm dish and transfected with 1 µg pcDNA3-DOR22a-GFP and 1 µg pcDNA3-DOR83b-GFP (Neuhaus, et al., Nat. Neurosci. 8, 15-17 (2005); DNAs were a generous gift of Dr. E. Neuhaus and Dr. H. Hatt) using Roti-Fect transfection kit (Roth, Karlsruhe, Germany). In some experiments we transfected cells with pcDNA3-DOR22a-GFP or pcDNA3-DOR83b-GFP alone. We also examined the properties of DOR47a, which was cloned, using standard molecular biology methods into a pcDNA3.1(-) expression vector. To test for putative G-protein coupling, cells were transfected with the respective OR-DNA together with 1.5 µg hHCN2/pcDNA3 (provided by M. Biel, Munich, Germany), with 1 µg hKCNQ4/pcDNA3.1 or with 1 µg hCNGA2/pCMV6-XL4 (Origene, Rockville, MD, USA).
(§2) Ion currents in HEK293 cells were measured with the patch-clamp technology as described (Wicher et al, J. Biol. Chem. 281, 3227-36 (2006)). In brief, ion currents in HEK293 cells were measured at room temperature using whole-cell patch-clamp with appropriate compensation of series resistance and of capacitive currents. Additional experiments were performed in the outside-out configuration. […]

hKCNQ4 = assay: Gq coupling test: KCNQ4 current in HEK293 cells coexpressing Or22a, Or83b and hKCNQ4; format: cell-based, human; conditions: increasing Etb concentrations; +40 mV
Experimental: as §1, §2

hCNGA2 [1] = assay: Gs coupling test: hCNGA2 whole-cell current in HEK293 cells; format: cell-based, human
Experimental: as §1
Ion currents in HEK293 cells were measured with the patch-clamp technology as described (Wicher et al, J. Biol. Chem. 281, 3227-36 (2006)). In brief, ion currents in HEK293 cells were measured at room temperature using whole-cell patch-clamp with appropriate compensation of series resistance and of capacitive currents. Additional experiments were performed in the outside-out configuration. Current measurements and data acquisition were performed using an EPC9 patch-clamp amplifier controlled by PatchMaster software (both HEKA Elektronik, Lambrecht, Germany). Patch-clamp pipettes were fabricated from borosilicate capillaries. Pipettes for whole-cell recordings had resistances of 2-4 MΩ for excised-patch recordings the pipette resistance was up to 15 MΩ.

Or22a and Or83b = target: T1, Or22a and Or83b (Drosophila melanogaster, UniProt P81909+Q9VNB5); assay: Whole-cell patch-clamp of currents in HEK293 cells coexpressing Or22a and Or83b; format: cell-based; conditions: 500 µM GDP-β-S in the pipette; n = 11
T1 construct: expressed in transfected cells; host or cells: HEK293
T1 sequence (P81909 1-397): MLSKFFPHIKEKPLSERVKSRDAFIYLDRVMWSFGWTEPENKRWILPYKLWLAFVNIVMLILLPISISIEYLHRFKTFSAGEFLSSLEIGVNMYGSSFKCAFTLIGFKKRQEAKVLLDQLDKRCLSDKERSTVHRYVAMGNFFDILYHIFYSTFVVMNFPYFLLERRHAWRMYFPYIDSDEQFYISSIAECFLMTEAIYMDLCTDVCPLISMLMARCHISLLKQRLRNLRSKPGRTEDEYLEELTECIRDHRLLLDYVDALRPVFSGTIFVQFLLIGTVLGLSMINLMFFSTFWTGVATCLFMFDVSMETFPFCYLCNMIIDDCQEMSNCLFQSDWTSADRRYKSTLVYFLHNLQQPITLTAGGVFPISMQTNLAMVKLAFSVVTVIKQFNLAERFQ
T1 sequence (Q9VNB5 1-486): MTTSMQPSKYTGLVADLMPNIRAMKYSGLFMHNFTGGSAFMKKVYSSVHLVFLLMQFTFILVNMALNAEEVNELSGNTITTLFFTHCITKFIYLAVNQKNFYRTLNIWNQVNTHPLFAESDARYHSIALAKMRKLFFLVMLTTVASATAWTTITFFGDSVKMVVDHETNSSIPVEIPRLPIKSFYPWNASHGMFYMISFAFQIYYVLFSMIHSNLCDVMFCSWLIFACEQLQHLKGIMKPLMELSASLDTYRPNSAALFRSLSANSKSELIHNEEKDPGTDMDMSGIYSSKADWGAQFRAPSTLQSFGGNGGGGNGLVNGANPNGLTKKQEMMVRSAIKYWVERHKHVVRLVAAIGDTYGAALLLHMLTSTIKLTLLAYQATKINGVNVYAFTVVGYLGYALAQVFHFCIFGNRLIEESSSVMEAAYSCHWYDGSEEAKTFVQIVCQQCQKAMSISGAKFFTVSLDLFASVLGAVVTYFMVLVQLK

hCNGA2 [2] = assay: Calcium imaging (fura-2) in HEK293 cells expressing hCNGA2 and Or22a; format: cell-based, human; conditions: most prominent near the plasma membrane (Fig. 5d)
Experimental: Free intracellular Ca^2+ concentration ([Ca^2+]i) was determined by fura-2 fluorescence as described (Messutat et al., Cell Calcium 30, 199-211. (2001)). In brief, cells were loaded with fura-2 by incubation in bath solution containing 2 µM fura-2/acetomethylester for 20 min. Free intracellular Ca^2+ concentration ([Ca^2+]i) was determined with the fluorescence ratio method. Excitation of fura-2 at 340 and 380 nm was performed with a monochromator (Polychrome II, T.I.L.L. Photonics, Gräfelfing, Germany) coupled via an epifluorescence condenser into an Axioskop FS microscope (Carl Zeiss, Jena, Germany) with a water immersion objective (LUMPFL 40xW/IR/0.8; Olympus, Hamburg, Germany). […] [Ca^2+]i was calculated according to the equation [Ca^(2 +)]i = Keff (R-Rmin)/(Rmax-R). […] Keff, Rmin, and Rmax were determined using HEK293 cells permeabilized with 2 µM ionomycin and three solutions with different concentrations of free Ca^2+ (Ca^2+ free; 5 mM Ca^2+; 500 nM Ca^2+; the composition of the 500 nM solution was calculated with WEBMAXC v.2.20) (Patton et al., Cell Calcium 35, 427-31 (2004)). […]
Fluorescence images were acquired using a cooled CCD camera controlled by TILLVision 4.0 software (T.I.L.L. Photonics). […] Image pairs were obtained by excitation for 100 ms at 340 nm and 380 nm; background fluorescence was subtracted.

## CCCC(=O)OCC [Etb, ethyl butyrate]
hHCN2
  effect on hHCN2 current time course: accelerated the current time course
hKCNQ4
  effect on KCNQ4 current: remains unaffected; also recorded: had no effect
hCNGA2 [1]; cells expressing Or22a plus Or83b or Or22a alone
  effect on CNGA2 current: concentration-dependent rise in CNGA2 current
hCNGA2 [1]; cells expressing hCNGA2 and Or22a, -80 mV, n = 5
  Hill coefficient of Etb-induced currents: 0.54
hCNGA2 [1]; cells expressing hCNGA2 and Or22a, -80 mV, normalized to controls, n = 5, read-out: EC50 of Etb-induced currents
  pEC50: 8.52
hCNGA2 [1]; cells solely expressing CNGA2, Etb 100 nM, forskolin 10 µM, -80 mV
  response of hCNGA2 current: did not respond
Or22a and Or83b
  Hill coefficient of Etb-induced currents: 1.1
hCNGA2 [2]
  [Ca^2+]i: produced an increase in [Ca^2+]i
